Measurements reported in US20250092065A1, “2-(INDAZOL-5-YL)-6-(PIPERIDIN-4-YL)-1,7-NAPHTHYRIDINE DERIVATIVES AND RELATED COMPOUNDS AS MODULATORS FOR SPLICING NUCLEIC ACIDS AND FOR THE TREATMENT OF PROLIFERATIVE DISEASES” (REMIX THERAPEUTICS INC., priority 2022, published 2025).

What was measured:
Target C = assay: HiBiT protein abundance assay, Target C (K562 HiBiT knock-in); format: cell-based, human; conditions: HiBiT knock-in K562 cells, 24 hours, top dose 10 μM
In short: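 K562 HiBiT knock-in cells (10000/well) were treated 24 h at 37° C with a 10-point 3-fold dilution series (top 10 μM final, ≤0.25% DMSO). HiBiT luminescence was read after lytic LgBiT detection. Percent response used unmodified K562 and DMSO-treated knock-in controls, and IC50 came from a four-parameter fit at 50% of untreated.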

K562 cells = assay: Cell Titer Glo 2.0 cell viability (toxicity) assay, K562; conditions: 500 cells/well, 72 hours

Row | Structure (SMILES) | IC50 (Target C) | Effect of Exemplary Compounds on Cell Viability, K562 (K562 cells)
1 | CNC1CCN(c2ccc3nc(-c4cc(C#N)c5nc(C)cn5c4)ncc3n2)C1 (stereo not shown) [Compound 382, 2-methyl-6-{6-[3-(methylamino)pyrrolidin-1-yl]pyrido[3,2-d]pyrimidin-2-yl}imidazo[1,2-a]pyridine-8-carbonitrile] | 1000 to 10000 nM | A (A represents <100 nM)
2 | Cn1cc2cc(-c3ccc4nc(N5CC[C@H](NC6CC(F)(F)C6)C5)ccc4n3)c(O)cc2n1 [Compound 384] | 1000 to 10000 nM | D (D represents greater than 10 μM in K562 cells)
3 | Cn1cc2cc(-c3ccc4nc(N5CCC(NCC6CC6)C5)ccc4n3)c(O)c(F)c2n1 (stereo not shown) [Compound 387, 5-(6-{3-[(cyclopropylmethyl)amino]pyrrolidin-1-yl}-1,5-naphthyridin-2-yl)-7-fluoro-2-methylindazol-6-ol] | < 100 nM | A (A represents <100 nM)
4 | CC(C)NC1CCN(c2ccc3nc(-c4cc5cn(C)nc5c(F)c4O)ccc3n2)C1 (stereo not shown) [Compound 388, 7-fluoro-5-{6-[3-(isopropylamino)pyrrolidin-1-yl]-1,5-naphthyridin-2-yl}-2-methylindazol-6-ol] | < 100 nM | A (A represents <100 nM)
5 | CNC1CCN(c2ccc3nc(-c4cc(F)c5nc(C)cn5c4)ncc3n2)C1 (stereo not shown) [Compound 393, 1-(2-{8-fluoro-2-methylimidazo[1,2-a]pyridin-6-yl}pyrido[3,2-d]pyrimidin-6-yl)-N-methylpyrrolidin-3-amine] | 100 to 1000 nM | B (B represents 100-1000 nM)
6 | Cc1c(O)c(-c2ncc3nc(C4CCNC4)ccc3n2)cc2cn(C)nc12 (stereo not shown) [Compound 397, 2,7-dimethyl-5-[6-(pyrrolidin-3-yl)pyrido[3,2-d]pyrimidin-2-yl]indazol-6-ol; trifluoroacetic acid] | 1000 to 10000 nM | B (B represents 100-1000 nM)
7 | Cc1c(O)c(-c2ncc3nc([C@H]4CCNC4)ccc3n2)cc2cn(C)nc12 [Compound 399] | > 10000 nM | C (C represents 1000-9999 nM)
8 | Cn1cc2cc(-c3ncc4nc(C5CCNCC5)ccc4n3)c(O)c(C#N)c2n1 [Compound 403, 6-hydroxy-2-methyl-5-[6-(piperidin-4-yl)pyrido[3,2-d]pyrimidin-2-yl]indazole-7-carbonitrile; trifluoroacetic acid] | 100 to 1000 nM | B (B represents 100-1000 nM)
9 | Cn1cc2cc(-c3ccc4nc(N5CCC(NC(C)(C)C)C5)ncc4n3)c(O)cc2n1 (stereo not shown) [Compound 404, 5-{2-[3-(tert-butylamino)pyrrolidin-1-yl]pyrido[3,2-d]pyrimidin-6-yl}-2-methylindazol-6-ol] | < 100 nM | B (B represents 100-1000 nM)
10 | COc1cc(-c2ccc3nc(N4CCC(NC(C)(C)C)C4)ncc3n2)cnn1 (stereo not shown) [Compound 405, N-tert-butyl-1-[6-(6-methoxypyridazin-4-yl)pyrido[3,2-d]pyrimidin-2-yl]pyrrolidin-3-amine] | 1000 to 10000 nM | C (C represents 1000-9999 nM)
11 | CN[C@H]1CCN(c2ccc3nc(-c4cc(C#N)c5nc(C)cn5c4)ncc3n2)C1 [Compound 406, 2-methyl-6-{6-[(3S)-3-(methylamino)pyrrolidin-1-yl]pyrido[3,2-d]pyrimidin-2-yl}imidazo[1,2-a]pyridine-8-carbonitrile] | 1000 to 10000 nM | B (B represents 100-1000 nM)
12 | CN[C@@H]1CCN(c2ccc3nc(-c4cc(C#N)c5nc(C)cn5c4)ncc3n2)C1 [Compound 407, 2-methyl-6-{6-[(3R)-3-(methylamino)pyrrolidin-1-yl]pyrido[3,2-d]pyrimidin-2-yl}imidazo[1,2-a]pyridine-8-carbonitrile] | 1000 to 10000 nM | B (B represents 100-1000 nM)
13 | Cc1nc2c(C)c(O)c(-c3ccc4nc(N5CC[C@H](NC(C)C)C5)ncc4n3)cc2o1 [Compound 416, 6-{2-[(3S)-3-(isopropylamino)pyrrolidin-1-yl]pyrido[3,2-d]pyrimidin-6-yl}-2,4-dimethyl-1,3-benzoxazol-5-ol] | < 100 nM | A (A represents <100 nM)
14 | Cc1nc2c(C)c(O)c(-c3ccc4nc(N5CC[C@H](NC6CC6)C5)ncc4n3)cc2o1 [Compound 433, 6-{2-[(3S)-3-(cyclopropylamino)pyrrolidin-1-yl]pyrido[3,2-d]pyrimidin-6-yl}-2,4-dimethyl-1,3-benzoxazol-5-ol] | < 100 nM | B (B represents 100-1000 nM)
15 | Cc1nc2c(C)c(O)c(-c3ccc4nc(N5CC[C@@H](NC(C)(C)C)C5)ncc4n3)cc2o1 [Compound 436] | < 100 nM | A (A represents <100 nM)
16 | Cc1nc2c(C)c(O)c(-c3ccc4nc(N5CC[C@H](NC(C)(C)C)C5)ncc4n3)cc2o1 [Compound 437] | < 100 nM | B (B represents 100-1000 nM)

The next lines start with results.

Row | IC50 (Target C) | Structure (SMILES) | Effect of Exemplary Compounds on Cell Viability, K562 (K562 cells)
17 | 100 to 1000 nM | Cn1cc2cc(-c3ccc4nc(N5CC[C@@H](NC6CC(F)(F)C6)C5)ccc4n3)c(O)cc2n1 [Compound 385] | D (D represents greater than 10 μM in K562 cells)
18 | < 100 nM | Cc1nc2cc(O)c(-c3ccc4nc(N5CCC(NCC6CC6)C5)ccc4n3)cc2o1 (stereo not shown) [Compound 389, 6-(6-{3-[(cyclopropylmethyl)amino]pyrrolidin-1-yl}-1,5-naphthyridin-2-yl)-2-methyl-1,3-benzoxazol-5-ol] | B (B represents 100-1000 nM)
19 | < 100 nM | Cc1nc2c(C)c(O)c(-c3ccc4nc(N5CCC(NCC6CC6)C5)ccc4n3)cc2o1 (stereo not shown) [Compound 390, 6-(6-{3-[(cyclopropylmethyl)amino]pyrrolidin-1-yl}-1,5-naphthyridin-2-yl)-2,4-dimethyl-1,3-benzoxazol-5-ol] | A (A represents <100 nM)
20 | 100 to 1000 nM | Cc1nc2cc(O)c(-c3ccc4nc(N5CCNCC5)ccc4n3)cc2o1 [Compound 408, 2-methyl-6-[6-(piperazin-1-yl)-1,5-naphthyridin-2-yl]-1,3-benzoxazol-5-ol] | B (B represents 100-1000 nM)
21 | 100 to 1000 nM | Cc1nc2cc(O)c(-c3ccc4nc(N5CCN[C@@H](C)C5)ccc4n3)cc2o1 [Compound 409] | B (B represents 100-1000 nM)
22 | 100 to 1000 nM | Cc1nc2cc(O)c(-c3ccc4nc(N5CCN6CCCC6C5)ccc4n3)cc2o1 (stereo not shown) [Compound 410] | B (B represents 100-1000 nM)
23 | 1000 to 10000 nM | Cc1nc2cc(O)c(-c3ccc4nc(N5CCNC6(CC6)C5)ccc4n3)cc2o1 [Compound 411] | C (C represents 1000-9999 nM)
24 | 100 to 1000 nM | Cc1nc2cc(O)c(-c3ccc4nc(N5CCC(NC(C)(C)C)CC5)ccc4n3)cc2o1 [Compound 412] | B (B represents 100-1000 nM)
25 | < 100 nM | Cc1nc2cc(O)c(-c3ccc4nc(N5CC[C@@H](NC(C)(C)C)C5)ncc4n3)cc2o1 [Compound 413, 6-{2-[(3R)-3-(tert-butylamino)pyrrolidin-1-yl]pyrido[3,2-d]pyrimidin-6-yl}-2-methyl-1,3-benzoxazol-5-ol] | B (B represents 100-1000 nM)
26 | 100 to 1000 nM | Cc1nc2cc(O)c(-c3ccc4nc(N5CC[C@H](NC(C)(C)C)C5)ncc4n3)cc2o1 [Compound 414, 6-{2-[(3S)-3-(tert-butylamino)pyrrolidin-1-yl]pyrido[3,2-d]pyrimidin-6-yl}-2-methyl-1,3-benzoxazol-5-ol] | B (B represents 100-1000 nM)
27 | 1000 to 10000 nM | Cc1nc2cc(O)c(-c3ccc4cc(N5CC[C@@H](NC(C)(C)C)C5)ncc4n3)cc2o1 [Compound 417] | B (B represents 100-1000 nM)
28 | 100 to 1000 nM | Cc1nc2cc(O)c(-c3ccc4nc(N5CCN[C@@H](C6CC6)C5)ccc4n3)cc2o1 [Compound 418] | B (B represents 100-1000 nM)
29 | 100 to 1000 nM | Cc1nc2cc(O)c(-c3ccc4nc(N5C[C@@H](C)N[C@@H](C6CC6)C5)ccc4n3)cc2o1 [Compound 419] | B (B represents 100-1000 nM)
30 | 100 to 1000 nM | Cc1nc2cc(O)c(-c3ccc4nc(N5C[C@@H](C)N[C@@H](C)C5)ccc4n3)cc2o1 [Compound 420] | B (B represents 100-1000 nM)
31 | 100 to 1000 nM | Cc1nc2cc(O)c(-c3ccc4nc(N5CCN[C@H](C6CC6)C5)ccc4n3)cc2o1 [Compound 421] | B (B represents 100-1000 nM)
32 | 100 to 1000 nM | Cc1nc2cc(O)c(-c3ccc4nc(N5CCN[C@@H](C(C)C)C5)ccc4n3)cc2o1 [Compound 422] | B (B represents 100-1000 nM)
33 | 100 to 1000 nM | Cc1nc2cc(O)c(-c3ccc4nc(N5CCC(N)CC5)ccc4n3)cc2o1 [Compound 424] | B (B represents 100-1000 nM)
34 | 1000 to 10000 nM | CNC1CCN(c2ccc3nc(-c4cc5oc(C)nc5cc4O)ccc3n2)CC1 [Compound 425] | B (B represents 100-1000 nM)
35 | 100 to 1000 nM | Cc1nc2cc(O)c(-c3ccc4nc(N5CC[C@H](NC6CC6)C5)ncc4n3)cc2o1 [Compound 435, 6-{2-[(3S)-3-(cyclopropylamino)pyrrolidin-1-yl]pyrido[3,2-d]pyrimidin-6-yl}-2-methyl-1,3-benzoxazol-5-ol] | B (B represents 100-1000 nM)
